The assay concerns BDF1 mice, P388 leukemia ip, median survival T/C. Nature of the assay: NCI In Vivo Anticancer Drug Screen. Data for tumor model P388 Leukemia (intraperitoneal) in B6D2F1 (BDF1) mice. Conditions: endpoint: median survival time, higher = longer survival. The essentials: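 Compound-treated tumour-bearing mice were compared with vehicle-treated controls. Survival was recorded, and the value is the treated-group measurement divided by the control-group measurement (T/C).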

Setting [1] is: dose: 12.5 mg/kg/injection, schedule: Q01DX009 (ip), vehicle: saline with Tween-80.
[2] abbreviates: dose: 25.0 mg/kg/injection, schedule: Q01DX009 (ip), vehicle: saline with Tween-80.
[3] abbreviates: dose: 50.0 mg/kg/injection, schedule: Q01DX009 (ip), vehicle: saline with Tween-80.
Setting [4] is: dose: 5.0 mg/kg/injection, schedule: Q04DX003 (ip), vehicle: saline with Tween-80.
The mark [5] stands for this setting: dose: 10.0 mg/kg/injection, schedule: Q04DX003 (ip), vehicle: saline with Tween-80.
The mark [6] stands for this setting: dose: 20.0 mg/kg/injection, schedule: Q04DX003 (ip), vehicle: saline with Tween-80.
The mark [7] stands for this setting: dose: 40.0 mg/kg/injection, schedule: Q01DX009 (ip), vehicle: saline.
[8] abbreviates: dose: 50.0 mg/kg/injection, schedule: Q01DX009 (ip), vehicle: Klucel (hydroxypropylcellulose) (HPC).
Setting [9] is: dose: 5.0 mg/kg/injection, schedule: Q04DX003 (ip), vehicle: saline.
Where [10] appears, read: dose: 10.0 mg/kg/injection, schedule: Q04DX003 (ip), vehicle: saline.
Where [11] appears, read: dose: 200.0 mg/kg/injection, schedule: Q04DX003 (ip), vehicle: Klucel (hydroxypropylcellulose) (HPC).

Several values for one entry are separate records, joined by “and”; a condition that tells them apart may be missing. Equal entries are not always repeated. Inconclusive results and toxic doses are left out.

As to `COc1cc(/C=C/[N+](=O)[O-])c(OC)cc1Br`, the T/C is 99 % of control (dose: 3.12 mg/kg/injection, schedule: Q01DX009 (ip), vehicle: saline with Tween-80); 103 % of control (dose: 6.25 mg/kg/injection, schedule: Q01DX009 (ip), vehicle: saline with Tween-80); 105 % of control under setting [1]; 153 % of control under setting [2]; 94 % of control under setting [3].

Turning to `C[N+](C)(C)C.N=C=O.N=C=O.N=C=O.N=C=O.[Co+2]`, the T/C by setting is: (dose: 2.5 mg/kg/injection, schedule: Q01DX009 (ip), vehicle: saline) 88 % of control; (dose: 5.0 mg/kg/injection, schedule: Q01DX001 (ip), vehicle: other) 86 % of control; (dose: 5.0 mg/kg/injection, schedule: Q01DX009 (ip), vehicle: saline with Tween-80) 100 % of control; under setting [4], 95 % of control; (dose: 10.0 mg/kg/injection, schedule: Q01DX001 (ip), vehicle: other) 95 % of control; (dose: 10.0 mg/kg/injection, schedule: Q01DX009 (ip), vehicle: saline with Tween-80) 115 % of control and 116 % of control. For the same compound, the T/C is, setting by setting: under setting [5], 109 % of control; (dose: 20.0 mg/kg/injection, schedule: Q01DX001 (ip), vehicle: other) 100 % of control; (dose: 20.0 mg/kg/injection, schedule: Q01DX009 (ip), vehicle: saline with Tween-80) 95 % of control and 115 % of control; (dose: 20.0 mg/kg/injection, schedule: Q01DX009 (ip), vehicle: saline) 95 % of control; under setting [6], 95 % of control; under setting [7], 117 % of control.

With `CCCC#CCOCC(O)CCl` (stereo not given), the T/C reads like this: (dose: 100.0 mg/kg/injection, schedule: Q01DX009 (ip), vehicle: saline) 104 % of control; (dose: 100.0 mg/kg/injection, schedule: Q04DX003 (ip), vehicle: saline with Tween-80) 104 % of control; (dose: 200.0 mg/kg/injection, schedule: Q01DX009 (ip), vehicle: saline) 109 % of control; (dose: 200.0 mg/kg/injection, schedule: Q04DX003 (ip), vehicle: saline with Tween-80) 108 % of control.

Consider `C=C1C(=O)OC2/C=C(\C)C3(O)C=CC(C)(CC(OC(=O)C(C)C)C12)O3` (stereo not given), for which the T/C by setting is: (dose: 10.0 mg/kg/injection, schedule: Q01DX009 (ip), vehicle: saline) 103 % of control; (dose: 12.5 mg/kg/injection, schedule: Q01DX009 (ip), vehicle: other) 161 % of control; (dose: 25.0 mg/kg/injection, schedule: Q01DX009 (ip), vehicle: other) 155 % of control; under setting [7], 100 % of control; (dose: 50.0 mg/kg/injection, schedule: Q01DX009 (ip), vehicle: other) 161 % of control.

On to `C=CCOC(=O)c1ccco1`, for which the T/C was 116 % of control (dose: 6.25 mg/kg/injection, schedule: Q01DX009 (ip), vehicle: Klucel (hydroxypropylcellulose) (HPC)); 108 % of control (dose: 12.5 mg/kg/injection, schedule: Q01DX009 (ip), vehicle: Klucel (hydroxypropylcellulose) (HPC)); 108 % of control (dose: 25.0 mg/kg/injection, schedule: Q01DX009 (ip), vehicle: Klucel (hydroxypropylcellulose) (HPC)); 100 % of control under setting [8].

For the compound `O=C(Nc1ccccc1)c1c(O)[nH]c(=S)[nH]c1=O`, the T/C (dose: 50.0 mg/kg/injection, schedule: Q01DX005 (ip), vehicle: saline with Tween-80) is 194 % of control.

Regarding `C=CCOCCN1CCN(CCCN2c3ccccc3Sc3ccc(C(F)(F)F)cc32)CC1`, the T/C is, setting by setting: under setting [9], 104 % of control; under setting [10], 121 % of control.

Consider `Oc1ccc(C2CCCCC2)c(O)c1`, for which the T/C runs as follows: under setting [8], 100 % of control; (dose: 50.0 mg/kg/injection, schedule: Q04DX003 (ip), vehicle: Klucel (hydroxypropylcellulose) (HPC)) 91 % of control; (dose: 100.0 mg/kg/injection, schedule: Q01DX009 (ip), vehicle: Klucel (hydroxypropylcellulose) (HPC)) 104 % of control; (dose: 200.0 mg/kg/injection, schedule: Q01DX009 (ip), vehicle: Klucel (hydroxypropylcellulose) (HPC)) 100 % of control; under setting [11], 91 % of control.

For `N=C(N)SCCCCCCCCCCSC(=N)N`, the T/C under setting [2] was 97 % of control and the T/C under setting [3] is 123 % of control.

`CO[C@@]12[C@H](COC(N)=O)C3=C(C(=O)C(C)=C(N)C3=O)N1C[C@@H]1N[C@@H]12`: the T/C by setting is: (dose: 0.03 mg/kg/injection, schedule: Q01DX010 (ip), vehicle: water) 100 % of control; (dose: 0.06 mg/kg/injection, schedule: Q01DX010 (ip), vehicle: saline) 123 % of control; (dose: 0.06 mg/kg/injection, schedule: Q01DX010 (ip), vehicle: water) 115 % of control; (dose: 0.13 mg/kg/injection, schedule: Q01DX010 (ip), vehicle: water) 168 % of control; (dose: 0.25 mg/kg/injection, schedule: Q01DX010 (ip), vehicle: saline) 159 % of control and 161 % of control; (dose: 0.25 mg/kg/injection, schedule: Q01DX010 (ip), vehicle: water) 200 % of control. In addition, the T/C (dose: 0.5 mg/kg/injection, schedule: Q01DX010 (ip), vehicle: saline) is 166 % of control and 213 % of control; the T/C (dose: 0.5 mg/kg/injection, schedule: Q01DX010 (ip), vehicle: water) was 242 % of control; the T/C (dose: 1.0 mg/kg/injection, schedule: Q01DX010 (ip), vehicle: saline) was 250 % of control and 180 % of control; the T/C (dose: 1.0 mg/kg/injection, schedule: Q01DX010 (ip), vehicle: water) is 215 % of control; the T/C (dose: 1.08 mg/kg/injection, schedule: Q04DX003 (ip), vehicle: saline) was 194 % of control and 196 % of control; the T/C (dose: 1.8 mg/kg/injection, schedule: Q04DX003 (ip), vehicle: saline) was 243 % of control and 222 % of control. The T/C was 90 % of control and 114 % of control (dose: 2.0 mg/kg/injection, schedule: Q01DX010 (ip), vehicle: saline); 105 % of control (dose: 2.0 mg/kg/injection, schedule: Q01DX010 (ip), vehicle: water); 236 % of control and 244 % of control (dose: 3.0 mg/kg/injection, schedule: Q04DX003 (ip), vehicle: saline); 157 % of control (dose: 4.0 mg/kg/injection, schedule: Q01DX001 (ip), vehicle: saline); 90 % of control and 112 % of control under setting [9]; 176 % of control (dose: 6.0 mg/kg/injection, schedule: Q01DX001 (ip), vehicle: saline). Also, the T/C (dose: 8.0 mg/kg/injection, schedule: Q01DX001 (ip), vehicle: saline) is 176 % of control.

Consider `COc1c(Br)cc(Br)cc1Br`, for which the T/C reads like this: (dose: 100.0 mg/kg/injection, schedule: Q04DX003 (ip), vehicle: Klucel (hydroxypropylcellulose) (HPC)) 108 % of control; under setting [11], 100 % of control; (dose: 400.0 mg/kg/injection, schedule: Q04DX003 (ip), vehicle: Klucel (hydroxypropylcellulose) (HPC)) 100 % of control.

For the compound `Cc1c(N)cccc1N`, the T/C under setting [1] was 96 % of control and the T/C under setting [2] was 123 % of control.

As for `N#CC(C#N)=Cc1ccc2c(c1)CCC2`, the T/C was 104 % of control under setting [4]; 104 % of control (dose: 9.5 mg/kg/injection, schedule: Q01DX009 (ip), vehicle: saline with Tween-80); 95 % of control under setting [5]; 109 % of control (dose: 19.0 mg/kg/injection, schedule: Q01DX009 (ip), vehicle: saline with Tween-80); 95 % of control under setting [6]; 86 % of control and 100 % of control (dose: 38.0 mg/kg/injection, schedule: Q01DX009 (ip), vehicle: saline with Tween-80).

For `CN(C)CC#N`, the T/C was 108 % of control under setting [10]; 91 % of control (dose: 20.0 mg/kg/injection, schedule: Q04DX003 (ip), vehicle: saline); 95 % of control (dose: 40.0 mg/kg/injection, schedule: Q04DX003 (ip), vehicle: saline).

For the compound `O=Cc1nc2ccccc2[nH]1`, the T/C was 108 % of control under setting [1]; 101 % of control under setting [2]; 103 % of control under setting [3]; 111 % of control (dose: 100.0 mg/kg/injection, schedule: Q01DX009 (ip), vehicle: saline with Tween-80).

Take `CC1CCC2(OC1)OC1CC3C4CCC5CC(O)C(O)CC5(C)C4CCC3(C)C1C2C` (stereo not given): the T/C is, setting by setting: (dose: 100.0 mg/kg/injection, schedule: Q04DX003 (ip), vehicle: other) 91 % of control; (dose: 200.0 mg/kg/injection, schedule: Q04DX003 (ip), vehicle: other) 87 % of control; (dose: 400.0 mg/kg/injection, schedule: Q04DX003 (ip), vehicle: other) 87 % of control.

Values taken from PubChem BioAssay AID328 (DTP/NCI, 2004).
